The values below are quoted from earlier work in patent publication US12336993B2, “Therapeutic benefit of suboptimally administered chemical compounds” (priority 2013, dated 2025).

In data set [1] the target is glycogen synthase kinase-33 (GSK-30) (Homo sapiens, UniProt P49841).
The subject of a further data set is Hodgkin's lymphoma. Particulars: literature reports (Gold et al. 1970; Kennedy et al. 1999).
The test system of the next data set is DNA. The settings on record: guanine-N7 alkylation of DNA.
A further data set deals with non-Hodgkin's lymphoma. The settings on record: literature report (Kennedy et al. 1999).
The test system of data set [2] is chronic lymphocytic leukemia. Particulars: literature reports (Kennedy & Theologides 1961; Kennedy et al. 1999).

glycogen synthase kinase-33 (GSK-30), sequence (P49841 whole entry): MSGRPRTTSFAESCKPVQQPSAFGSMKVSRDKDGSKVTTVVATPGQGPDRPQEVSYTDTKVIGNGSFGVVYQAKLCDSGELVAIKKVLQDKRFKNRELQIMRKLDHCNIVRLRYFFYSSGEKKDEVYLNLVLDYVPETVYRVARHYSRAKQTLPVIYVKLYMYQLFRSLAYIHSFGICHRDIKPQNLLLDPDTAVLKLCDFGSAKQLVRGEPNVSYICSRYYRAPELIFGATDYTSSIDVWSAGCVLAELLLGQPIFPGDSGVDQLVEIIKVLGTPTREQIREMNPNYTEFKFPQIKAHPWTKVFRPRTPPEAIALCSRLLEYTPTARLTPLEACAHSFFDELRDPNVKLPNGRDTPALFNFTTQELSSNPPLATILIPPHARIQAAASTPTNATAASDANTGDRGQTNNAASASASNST

Consider `CN1C(=O)/C(=C2/C(=O)Nc3ccccc32)c2ccccc21` [meisoindigo], for which the “concentration at which inhibition of GSK is promoted” value in data set [1] is 5 to 50 nM.
As for `O=c1[nH]cc(N(CCCl)CCCl)c(=O)[nH]1` [uracil mustard, 5-[bis(2-chloroethyl)amino]-1H-pyrimidine-2,4-dione], the “activity in Hodgkin's lymphoma” value with Hodgkin's lymphoma is reported as “active”. Moreover, in the data set on DNA, the “sequence preferences to alkylate” value was 5′-YGC-3′. The “activity in non-Hodgkin's lymphoma” value with non-Hodgkin's lymphoma was “active”. Further, the “activity in chronic lymphocytic leukemia” value in data set [2] is listed as “active”.
